These results are taken from patent publication US20240285717A1, “COMPOSITION FOR PREVENTING OR TREATING MUSCULAR DISEASE CONTAINING PONCIRI FRUCTUS EXTRACT” (KOREA INSTITUTE OF SCIENCE AND TECHNOLOGY, priority 2023, published 2024).

The structures appear in SMILES notation.

Assay [1] relates to C2C12 myotube cells. Nature of the assay: Oxidative stress and mitochondrial function in dexamethasone-treated C2C12 myotube cells. Format: cell-based, mouse. The note with it: 10 μM dexamethasone 24 hours, then auraptene; FIG. 18. The method, then: C2C12 myoblasts were differentiated into myotube cells as in Example 1, and then treated with 10 μM dexamethasone for 24 hours to induce oxidative stress or mitochondrial dysfunction, and then treated with auraptene to determine its efficacy in improving function.

The next assay relates to myotube cells. Nature of the assay: Diameter analysis of myotube cells with dexamethasone-induced myoatrophy. The class given is cell-based, mouse. The note with it: auraptene 5, 10, 20 uM; dexamethasone 100 uM; FIG. 15. The procedure:
The effect of auraptene (5 uM, 10 uM, 20 uM) on the diameter of myotube cells in which myoatrophy was induced by dexamethasone (100 uM) was analyzed. The results confirmed that the diameter of myotube cells decreased by dexamethasone treatment was restored by auraptene treatment (FIG. 15).

In assay [2] the test system is mice with dexamethasone-induced sarcopenia. Nature of the assay: Muscle force in mice with dexamethasone-induced sarcopenia. The class given is in vivo, C57BL/6J mice. The note with it: 4 weeks. The procedure: (§1) C57BL/6J mice (male, 10 weeks old) were obtained from Doo-yeol Biotech, and after 2 weeks of acclimatization, they were divided into 6 test groups (n=10 per group) according to body weight. The test substance was prepared as a liquid suspension using 0.5% CMC, and the test substance was administered for 4 weeks. To compensate for the placebo effect of 0.5% CMC and the weight loss effect caused by the stress of administration, the vehicle control group was administered 0.5% CMC orally daily. Two weeks after treatment, the experimental group received an intraperitoneal injection of dexamethasone for 2 weeks to induce sarcopenia, while the normal control group received an intraperitoneal injection of saline. All mice were fed the same AIN76 diet (Research Diets) and treated with the test compound for an additional 2 weeks for a total of 4 weeks. The dark:light cycle was maintained at a 12 hr:12 hr interval and water was allowed ad libitum.
The changes in muscle force in mice were determined by the same method as in Example 3 above.

The test system is the same in assay [3]. Nature of the assay: Weight by muscle types in mice with dexamethasone-induced sarcopenia. The class given is in vivo, C57BL/6J mice. The method, then: as §1
At the end of a total of 4 weeks of Ponciri Fructus extract administration in Example 3 above, the weight of each type of muscle tissue in all treatment groups was determined.
After a total of 4 weeks of Auraptene administration, the weight of each type of muscle tissue in all treatment groups was determined in Example 8-5 above.

Assay [4] relates to C2C12 myotube cells. Nature of the assay: Cell viability of C2C12 myotube cells with dexamethasone-induced myoatrophy. The note with it: for viability of myotube cells reduced by dexamethasone treatment, by isolated compounds: each compound at 20 uM, FIG. 13. Format: cell-based, mouse. The procedure:
Cell culture and differentiation of myoblasts: C2C12 mouse (CRL1772; American type cell collection, USA)-derived myoblasts were cultured in Dulbecco's Modified Eagle's Medium (DMEM) medium supplemented with 10 (v/v) % FBS, and after reaching 90% confluence, they were transferred to DMEM medium containing 2 (v/v) % horse serum and cultured for 7 days to differentiate into myotube cells.
After differentiating C2C12 myoblasts into myotube cells, myoatrophy was induced by treatment with 100 µM of Dexamethasone for 24 hours, and then the myoatrophy-induced myotube cells were treated with Ponciri Fructus extract (PT) at concentrations of 5, 10, and 20 ug/ml, respectively, to determine the effect of alleviating myoatrophy.
The effect of each fraction (concentrations 5 ug/ml, 10 ug/ml, 20 ug/ml, 40 ug/ml) prepared according to Example 2 on the viability of […] in which myoatrophy was induced by dexamethasone was analyzed. The assay was performed in the same manner as in Example 1.
The effect of the compounds isolated according to Example 3 (each at a concentration of 20 uM) on the viability of myotube cells in which myoatrophy was induced by dexamethasone was analyzed. The assay was performed in the same manner as in Example 1.
The assay was performed in the same manner as in Example 1.

Assay [5] has as its system C2C12 myotube cells. Nature of the assay: RT-qPCR of myotube cell differentiation and exercise performance-related gene expression in dexamethasone-treated C2C12 myotube cells. The class given is cell-based, mouse. The note with it: auraptene treatment after dexamethasone. The method, then: C2C12 mouse-derived […] treated with dexamethasone 10 µM were washed twice with PBS, and total RNA was extracted according to the user-recommended protocol of an RNA extraction kit (GeneAll RNA isolation kit, Seoul, South Korea). cDNA was synthesized from the extracted RNA and subjected to real time-quantitative polymerase chain reaction (RT-qPCR). PCR analysis was performed according to the user-recommended cycling conditions of analyzer (Applied Biosystems 7900 HT thermal cycler, Applied Biosystems), and to determine the expression level of each mRNA, fold change values were calculated relative to the control, using beta-actin as an endogeneous control, and relative expression amounts were compared. The primer sequences are as follows Myf5 forward primer: TCCAGGTATTCCCACCTGCT (sequence 1), Myf5 reverse primer: CACCTGGAGCGGATGAAGAAGAAC (sequence 2); Myf6 forward primer: ACAGATCGTCGGAAAGCAGC (sequence 3), Myf6 reverse primer: CACTCCGCAGAATCTCCACC (sequence 4); Myod forward primer: CATAGACTTGACAGGCCCCG (sequence 5), Myod reverse primer: CGGGTCCAGGTCCTCAAAAA (sequence 6); Myog forward primer: AGCTATCCGGTTCCAAAGCC (sequence 7), Myog reverse primer: GCACAGGAGACCTTGGTCAG (sequence 8); Ppard forward primer: GTATGCGCATGGGACTCACT (sequence 9), Ppard reverse primer: ACTGCCTTTACCGTGGGTTT (SEQ ID NO: 10); Ppargcla forward primer: GTTGCCTGCATGAGTGTGTG (SEQ ID NO: 11), Ppargc1a reverse primer: CACATGTCCCAAGCCATCCA (SEQ ID NO: 12). As a result, the gene expressions of Myf5, Myf6, Myod and Myog, markers of myotube cell differentiation, which were decreased by dexamethasone treatment, were increased by Ponciri Fructus extract treatment, and the gene expressions of Ppard and Pgc1a, markers of motor performance, were increased by Ponciri Fructus extract treatment, as shown in FIGS. 2 and 3.
The effect of auraptene on promoting myotube cell differentiation and exercise performance-related gene expression in C2C12 myotube cells with dexamethasone-induced myoatrophy was analyzed. The assay was performed using the same method as in Example 2.

Where [6] appears, read: auraptene 10, 50 mg/kg, 4 weeks, vs dexamethasone-treated group, FIG. 20.

In the case of `CC(C)=CCC/C(C)=C/COc1ccc2ccc(=O)oc2c1` [Compound 2, Auraptene], in the assay on C2C12 myotube cells [1], the “glutathione (GSH) content” value is reported as “increased” and the “mitochondrial dysfunction induced by dexamethasone treatment” value is “improved”. Besides, the “diameter of myotube cells decreased by dexamethasone treatment” value in the assay with myotube cells is given as “restored”. For the same compound, in assay [2] (auraptene 10, 50 mg/kg oral once daily, Dexamethasone 20 mg/kg 2 weeks, FIG. 19), the “muscle force compared to the dexamethasone-treated group” value is “increased”. Also, in assay [3] (setting [6]), the calf muscle weight result was “significantly increased”, the “longissimus dorsi muscle weight” value is recorded as “significantly increased”, the soleus muscle weight entry is given as “significantly increased” and the thigh muscle weight result was “significantly increased”. Further, in the assay with C2C12 myotube cells [4] (5 uM, 10 uM, 20 uM, all experimental groups, FIG. 14), the “viability of myotube cells reduced by dexamethasone treatment, auraptene by concentration” value is “restore”. Also, the “viability of myotube cells reduced by dexamethasone treatment, by isolated compounds” value in the assay on C2C12 myotube cells [4] was “excellently restore”. Also, in the assay on C2C12 myotube cells [4] (listed as auraptene), the “viability of myotube cells reduced by dexamethasone treatment, by isolated compounds” value is “best effect”. For the same compound, in the assay on C2C12 myotube cells [5] (FIG. 16), the “Myf5 gene expression (myotube cell differentiation marker)” value is on record as “increased”, the “Myod1 gene expression (myotube cell differentiation marker)” value is given as “increased” and the “Myog gene expression (myotube cell differentiation marker)” value was “increased”. Besides, in the assay on C2C12 myotube cells [5] (FIG. 17), the “Nrf1 gene expression (motor performance marker)” value is given as “increased”, the “Pparg1a gene expression (motor performance marker)” value was “increased”, the “Tomm20 gene expression (motor performance marker)” value is listed as “increased” and the “UCP3 gene expression (motor performance marker)” value was “increased”.

Regarding `O=c1ccc2ccc(O)cc2o1` [Compound 3, Umbelliferone], the “viability of myotube cells reduced by dexamethasone treatment, by isolated compounds” value in the assay on C2C12 myotube cells [4] is listed as “excellently restore”.

Consider `CC(C)C(=O)Cc1c(OCC2OC2(C)C)ccc2ccc(=O)oc12` (stereo not shown) [Compound 9, Isoponcimarin], for which, in the assay with C2C12 myotube cells [4], the “viability of myotube cells reduced by dexamethasone treatment, by isolated compounds” value is “excellently restore”.

As for `C/C(=C\COc1ccc2ccc(=O)oc2c1)C/C=C/C(C)(C)OO` [Compound 12, 7-O-(7′-peroxygeranyl)coumarin], in the assay with C2C12 myotube cells [4], the “viability of myotube cells reduced by dexamethasone treatment, by isolated compounds” value was “excellently restore”.

Consider `C[C@]12C/C(=C/O)C(=O)C[C@@H]1CC[C@@H]1[C@@H]2CC[C@@]2(C)[C@H]1CC[C@]2(C)O` [Oxymetholone, reference compound], for which the “muscle force compared to the group treated with Dexamethasone alone” value in assay [2] (oral once daily, PT 10, 50, 100 mg/kg, Oxymetholone 50 mg/kg, Dexamethasone 20 mg/kg i.p. 2 weeks, FIGS. 4 and 5) is “increased”. In addition, the “weight of quadriceps muscle” value in assay [3] (after 4 weeks, PT 10, 50, 100 mg/kg, Oxymetholone 50 mg/kg, vs Dexamethasone group, FIG. 6) is “significantly increased”. The “weight of gastrocnemius muscle” value in assay [3] (after 4 weeks, PT 10, 50, 100 mg/kg, Oxymetholone 50 mg/kg, vs Dexamethasone group, FIG. 7) is “significantly increased”. Further, the “weight of tibialis muscle” value in assay [3] (after 4 weeks, PT 10, 50, 100 mg/kg, Oxymetholone 50 mg/kg, vs Dexamethasone group, FIG. 8) was “significantly increased”.
